Consider seven compounds from patent publication US9145351B2, “Azole derivatives, methods for producing the same, intermediate thereof, agro-horticultural agents” (KUREHA CORPORATION, priority 2009, dated 2015).

Like-named read-outs stand apart in the source and are kept apart here.

The term inhibition denotes the drop in the measured response relative to a control, in per cent.

What all share (assay type): cell-based
The test system of one assay is Giberella fujikuroi. The experiment in a line: Plate medium fungicidal assay, rice bakanae disease G.f (Experimental Example 5). In short, it runs like this: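 Gibberella fujikuroi mycelial plugs (4 mm) placed on PDA plates containing compound at 50 mg/L and 5 mg/L, added from DMSO solution. Colony diameter compared with untreated plates as % inhibition = 100(dc−dt)/dc, then scored in 5 grades.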

Assay [1] relates to Pseudocercoporella herpotrichoides. Briefly: Plate medium fungicidal assay, wheat eye spot P.h (Experimental Example 5). The method, boiled down: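 Compound in DMSO mixed into PDA agar for plates at 50 mg/L and 5 mg/L, inoculated with a 4 mm mycelial plug of Pseudocercosporella herpotrichoides. Colony diameter compared with untreated plates: % mycelial growth inhibition = 100(dc−dt)/dc, scored on a 5-grade scale.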

A further assay concerns Sclerotinia sclerotiorum. The experiment in a line: Plate medium fungicidal assay, Sclerotinia rot S.s (Experimental Example 5). The note with it: Sclerotinia sclerotiorum. In short, it runs like this:
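A 4 mm mycelial plug was placed on PDA plates containing compound at 50 mg/L and 5 mg/L, added from DMSO solution. Colony diameters were compared with untreated plates, % mycelial growth inhibition was R=100(dc−dt)/dc, and scores fell into 5 grades.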

The next assay has as its system Rhynchosporium secalis. Briefly: Plate medium fungicidal assay, barley leaf blotch R.sec (Experimental Example 5). The conditions noted are these: Rhynchosporium secalis. In short, it runs like this:
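Compound in DMSO mixed into PDA plate medium at 50 mg/L and 5 mg/L; 4 mm mycelial plug of the fungus inoculated. Colony diameter compared with untreated plates gives % mycelial growth inhibition R=100(dc−dt)/dc, scored on a 5-grade scale.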

For another assay, the system named is Botritis cinerea. The experiment in a line: Plate medium fungicidal assay, gray mold B.c (Experimental Example 5). The method, boiled down: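 Compounds in DMSO were incorporated into PDA plate medium at 50 mg/L and 5 mg/L, then inoculated with 4 mm mycelial plugs of Botrytis cinerea. Colony diameter versus untreated plates gave % mycelial growth inhibition, R=100(dc−dt)/dc, scored on a 5-grade scale.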

The next assay deals with Fusarium graminearum. The experiment in a line: microbe, parasite or virus in culture. The note with it: Fusarium graminearum.
The mark [2] stands for this setting: plate medium containing compound at 5 mg/L, read-out: Growth inhibition grade, G.f.
Where [3] appears, read: plate medium containing compound at 50 mg/L, read-out: Growth inhibition grade, G.f.
Where [4] appears, read: plate medium containing compound at 5 mg/L, read-out: Growth inhibition grade, P.h.
Where [5] appears, read: plate medium containing compound at 50 mg/L, read-out: Growth inhibition grade, P.h.
Setting [6] is: plate medium containing compound at 5 mg/L, read-out: Growth inhibition grade, S.s.
[7] abbreviates: plate medium containing compound at 50 mg/L, read-out: Growth inhibition grade, S.s.
[8] abbreviates: plate medium containing compound at 5 mg/L, read-out: Growth inhibition grade, R.sec.
Setting [9] is: plate medium containing compound at 50 mg/L, read-out: Growth inhibition grade, R.sec.
Setting [10] is: plate medium containing compound at 5 mg/L, read-out: Growth inhibition grade, B.c.
The mark [11] stands for this setting: plate medium containing compound at 50 mg/L, read-out: Growth inhibition grade, B.c.
Setting [12] is: read-out: Growth inhibition grade, F.g.
The mark [13] stands for this setting: plate medium, 5 mg/L, read-out: growth inhibition grade G.f.
Setting [14] is: plate medium, 50 mg/L, read-out: growth inhibition grade G.f.
Where [15] appears, read: plate medium, 5 mg/L, read-out: growth inhibition grade P.h.
Where [16] appears, read: plate medium, 50 mg/L, read-out: growth inhibition grade P.h.
Setting [17] is: plate medium, 5 mg/L, read-out: growth inhibition grade S.s.
Setting [18] is: plate medium, 50 mg/L, read-out: growth inhibition grade S.s.
[19] abbreviates: plate medium, 5 mg/L, read-out: growth inhibition grade R.sec.
The mark [20] stands for this setting: plate medium, 50 mg/L, read-out: growth inhibition grade R.sec.
Where [21] appears, read: plate medium, 5 mg/L, read-out: growth inhibition grade B.c.
Where [22] appears, read: plate medium, 50 mg/L, read-out: growth inhibition grade B.c.
[23] abbreviates: read-out: growth inhibition grade F.g.

Turning to `C[C@]1(CBr)CC[C@@H](Cc2ccc(Cl)cc2)[C@]1(O)Cn1cncn1` (racemic) [Compound I-25, (1RS,2SR,5SR)-2-bromomethyl-5-(4-chlorobenzyl)-2-methyl-1-(1H-1,2,4-triazol-1-ylmethyl)cyclopentanol], the inhibition at 5 µg/mL in the assay with Giberella fujikuroi (setting [2]) is > 80%; in assay [1] (setting [4]) it was 40 to 60%; in the assay on Sclerotinia sclerotiorum (setting [6]) it was > 80%; in the assay with Rhynchosporium secalis (setting [8]) it was > 80%; in the assay on Botritis cinerea (setting [10]), > 80%; in the assay with Fusarium graminearum (setting [12]), > 80%. Besides, the inhibition at 50 µg/mL (with Giberella fujikuroi (setting [3]); in assay [1] (setting [5]); in the assay with Sclerotinia sclerotiorum (setting [7]); in the assay on Rhynchosporium secalis (setting [9]); in the assay on Botritis cinerea (setting [11]); in the assay on Fusarium graminearum (setting [12])) was > 80% in each case.
On to `C[C@]1(CCl)CC[C@@H](Cc2cccc(Cl)c2)[C@]1(O)Cn1cncn1` (racemic) [Compound I-74, (1RS,2SR,5SR)-5-(3-chlorobenzyl)-2-chloromethyl-2-methyl-1-(1H-1,2,4-triazol-1-ylmethyl)cyclopentanol], for which the inhibition at 5 µg/mL (with Giberella fujikuroi (setting [2]); in assay [1] (setting [4]); in the assay on Sclerotinia sclerotiorum (setting [6]); in the assay on Rhynchosporium secalis (setting [8]); with Botritis cinerea (setting [10]); with Fusarium graminearum (setting [12])) was > 80% in each case. In addition, the inhibition at 50 µg/mL (in the assay with Giberella fujikuroi (setting [3]); in assay [1] (setting [5]); in the assay with Sclerotinia sclerotiorum (setting [7]); with Rhynchosporium secalis (setting [9]); with Botritis cinerea (setting [11]); in the assay on Fusarium graminearum (setting [12])) was > 80% in each case.
`CC(Cl)=C[C@]1(C)CC[C@@H](Cc2ccc(Cl)cc2)[C@]1(O)Cn1cncn1` (racemic) [Compound I-115, (1RS,2SR,5SR)-5-(4-chlorobenzyl)-2-(2-chloropropenyl)-2-methyl-1-(1H-1,2,4-triazol-1-ylmethyl)cyclopentanol]: the inhibition at 5 µg/mL (in the assay with Giberella fujikuroi (setting [13]); in assay [1] (setting [15]); with Sclerotinia sclerotiorum (setting [17]); in the assay with Rhynchosporium secalis (setting [19]); with Botritis cinerea (setting [21]); in the assay on Fusarium graminearum (setting [23])) was > 80% throughout. Moreover, the inhibition at 50 µg/mL (with Giberella fujikuroi (setting [14]); in assay [1] (setting [16]); in the assay on Sclerotinia sclerotiorum (setting [18]); in the assay with Rhynchosporium secalis (setting [20]); in the assay with Botritis cinerea (setting [22]); with Fusarium graminearum (setting [23])) was > 80% each time.
Turning to `C[C@]1(CBr)CC[C@@H](Cc2ccc(F)cc2)[C@]1(O)Cn1cncn1` (racemic) [Compound I-601, (1RS,2SR,5SR)-2-bromomethyl-5-(4-fluorobenzyl)-2-methyl-1-(1H-1,2,4-triazol-1-ylmethyl)cyclopentanol], the inhibition at 5 µg/mL is > 80% in the assay on Giberella fujikuroi (setting [13]); 60 to 80% in assay [1] (setting [15]); > 80% with Sclerotinia sclerotiorum (setting [17]); > 80% in the assay on Rhynchosporium secalis (setting [19]); 60 to 80% in the assay with Botritis cinerea (setting [21]); > 80% with Fusarium graminearum (setting [23]). Also, the inhibition at 50 µg/mL (with Giberella fujikuroi (setting [14]); in assay [1] (setting [16]); in the assay on Sclerotinia sclerotiorum (setting [18]); in the assay with Rhynchosporium secalis (setting [20]); in the assay with Botritis cinerea (setting [22]); in the assay on Fusarium graminearum (setting [23])) was > 80% in each case.
Turning to `C[C@]1(CCl)CC[C@@H](Cc2ccccc2)[C@]1(O)Cn1cncn1` (racemic) [Compound I-73, (1RS,2SR,5SR)-2-chloromethyl-5-benzyl-2-methyl-1-(1H-1,2,4-triazol-1-ylmethyl)cyclopentanol], the inhibition at 5 µg/mL (with Giberella fujikuroi (setting [2]); in the assay on Giberella fujikuroi (setting [13]); in assay [1] (setting [4]); in assay [1] (setting [15]); with Sclerotinia sclerotiorum (setting [6]); with Sclerotinia sclerotiorum (setting [17])) was > 80% throughout. Besides, the inhibition at 5 µg/mL in the assay with Rhynchosporium secalis (setting [8]), in the assay with Rhynchosporium secalis (setting [19]), in the assay with Botritis cinerea (setting [10]), with Botritis cinerea (setting [21]), with Fusarium graminearum (setting [12]) and with Fusarium graminearum (setting [23]) was > 80% throughout. Moreover, the inhibition at 50 µg/mL (with Giberella fujikuroi (setting [3]); in the assay on Giberella fujikuroi (setting [14]); in assay [1] (setting [5]); in assay [1] (setting [16]); in the assay with Sclerotinia sclerotiorum (setting [7]); in the assay with Sclerotinia sclerotiorum (setting [18])) was > 80% throughout. Besides, the inhibition at 50 µg/mL in the assay on Rhynchosporium secalis (setting [9]), in the assay with Rhynchosporium secalis (setting [20]), with Botritis cinerea (setting [11]), in the assay with Botritis cinerea (setting [22]), in the assay on Fusarium graminearum (setting [12]) and in the assay on Fusarium graminearum (setting [23]) was > 80% each time.
`CC(Cl)=C[C@@]1(C)CC[C@@H](Cc2ccc(Cl)cc2)[C@]1(O)Cn1cncn1` (racemic) [Compound I-15, (1RS,2RS,5SR)-5-(4-chlorobenzyl)-2-(2-chloropropenyl)-2-methyl-1-(1H-1,2,4-triazol-1-ylmethyl)cyclopentanol]: the inhibition at 5 µg/mL (with Giberella fujikuroi (setting [2]); in assay [1] (setting [4]); in the assay with Sclerotinia sclerotiorum (setting [6]); in the assay on Rhynchosporium secalis (setting [8]); in the assay with Botritis cinerea (setting [10]); in the assay with Fusarium graminearum (setting [12])) was > 80% in each case. Besides, the inhibition at 50 µg/mL (in the assay on Giberella fujikuroi (setting [3]); in assay [1] (setting [5]); with Sclerotinia sclerotiorum (setting [7]); with Rhynchosporium secalis (setting [9]); with Botritis cinerea (setting [11]); with Fusarium graminearum (setting [12])) was > 80% each time.
In the case of `CC[C@]1(CCl)CC[C@@H](Cc2ccc(Cl)cc2)[C@]1(O)Cn1cncn1` (racemic) [Compound I-36, (1RS,2SR,5SR)-5-(4-chlorobenzyl)-2-chloromethyl-2-ethyl-1-(1H-1,2,4-triazol-1-ylmethyl)cyclopentanol], the inhibition at 5 µg/mL was > 80% in the assay on Giberella fujikuroi (setting [2]); > 80% in assay [1] (setting [4]); > 80% in the assay on Sclerotinia sclerotiorum (setting [6]); > 80% in the assay with Rhynchosporium secalis (setting [8]); 60 to 80% in the assay on Botritis cinerea (setting [10]); > 80% in the assay with Fusarium graminearum (setting [12]). Moreover, the inhibition at 50 µg/mL (in the assay on Giberella fujikuroi (setting [3]); in assay [1] (setting [5]); with Sclerotinia sclerotiorum (setting [7]); in the assay with Rhynchosporium secalis (setting [9]); in the assay on Botritis cinerea (setting [11]); in the assay on Fusarium graminearum (setting [12])) was > 80% each time.
